According to ChEMBL document CHEMBL1201862, “PubChem BioAssay data set” (2004):
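48-hour exposure; five concentrations; linearly interpolated endpoints. Abbreviation: GI50, concentration required for 50% inhibition of growth.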 Active and inactive are the calls of the source. No stated cut-off is given here; in the data, active = GI50 up to about 1.1 µM and inactive = higher.

How the values were obtained:
Test in all cases: inhibition of tumour cell growth, NCI panel, 48 h
A498 = test system: A498
A549 = test system: A549
DLD-1 = test system: DLD-1
HCC 2998 = test system: HCC 2998
KM-20L2 = test system: KM-20L2
MOLT-4 = test system: MOLT-4
NCI-H460 = test system: NCI-H460
OVCAR-4 = test system: OVCAR-4
RPMI-8226 = test system: RPMI-8226
SF-268 = test system: SF-268
SK-MEL-2 = test system: SK-MEL-2
SK-OV-3 = test system: SK-OV-3
SNB-78 = test system: SNB-78
TK-10 = test system: TK-10
U-251 = test system: U-251
UO-31 = test system: UO-31
CAKI-1 = test system: CAKI-1
LXFL 529 = test system: LXFL 529
MCF7 = test system: MCF7
MDA-N = test system: MDA-N

Measured: GI50

O=C1CCC2CCOc3ccc(O)c1c32 (stereo unspecified)
inactive: A498 > 100 µM | A549 > 100 µM | DLD-1 > 100 µM | HCC 2998 > 100 µM | KM-20L2 > 100 µM | MOLT-4 > 100 µM | NCI-H460 > 100 µM | OVCAR-4 > 100 µM | RPMI-8226 > 100 µM | SF-268 > 100 µM | SK-MEL-2 > 100 µM | SK-OV-3 > 100 µM | SNB-78 > 100 µM | TK-10 > 100 µM | U-251 > 100 µM | UO-31 > 100 µM

N#CC1C(=O)NC(=O)C1=O (stereo unspecified)
inactive: A498 > 100 µM | CAKI-1 > 100 µM | HCC 2998 > 100 µM | KM-20L2 > 100 µM | LXFL 529 > 100 µM | MOLT-4 > 100 µM | NCI-H460 > 100 µM | OVCAR-4 > 100 µM | RPMI-8226 > 100 µM | SF-268 > 100 µM | SK-MEL-2 > 100 µM | SK-OV-3 > 100 µM | SNB-78 > 100 µM | TK-10 > 100 µM | U-251 > 100 µM | UO-31 > 100 µM

COc1cc(-c2cc(-c3cc([N+](=O)[O-])c(/C=N/NC(=O)c4ccncc4)o3)ccc2OC)ccc1C
inactive: A498 > 100 µM | A549 > 100 µM | CAKI-1 > 100 µM | DLD-1 > 100 µM | HCC 2998 > 100 µM | KM-20L2 > 100 µM | LXFL 529 > 100 µM | OVCAR-4 > 100 µM | RPMI-8226 > 100 µM | SF-268 > 100 µM | SK-MEL-2 > 100 µM | SK-OV-3 > 100 µM | TK-10 > 100 µM

CC12CC(=O)OC(Cc3ccccc31)O2 (stereo unspecified)
inactive: A549 > 100 µM | DLD-1 > 100 µM | HCC 2998 > 100 µM | KM-20L2 > 100 µM | LXFL 529 > 100 µM | MOLT-4 > 100 µM | NCI-H460 > 100 µM | RPMI-8226 > 100 µM | SF-268 > 100 µM | SK-MEL-2 > 100 µM | SK-OV-3 > 100 µM | SNB-78 > 100 µM | TK-10 > 100 µM | U-251 > 100 µM | UO-31 > 100 µM

Nc1nc(S)nc(C(=O)Nc2ccc(Cl)c(Cl)c2)c1-c1ccc(Cl)cc1
inactive: A498 > 100 µM | A549 > 100 µM | CAKI-1 > 100 µM | DLD-1 > 100 µM | HCC 2998 > 100 µM | KM-20L2 > 100 µM | LXFL 529 > 100 µM | MOLT-4 14.7 µM | NCI-H460 > 100 µM | OVCAR-4 > 100 µM | RPMI-8226 62.7 µM | SF-268 > 100 µM | SK-OV-3 > 100 µM | TK-10 > 100 µM | U-251 > 100 µM | UO-31 > 100 µM

C/C(=C\CC[C@]1(C)OC(C)(C)OC1CC/C(C)=C/CO[Si](c1ccccc1)(c1ccccc1)C(C)(C)C)CC/C=C/CO[Si](C)(C)C(C)(C)C (stereo partly specified)
inactive: A498 > 100 µM | A549 > 100 µM | CAKI-1 > 100 µM | DLD-1 > 100 µM | HCC 2998 > 100 µM | KM-20L2 > 100 µM | MOLT-4 > 100 µM | NCI-H460 > 100 µM | OVCAR-4 > 100 µM | RPMI-8226 > 100 µM | SF-268 > 100 µM | SK-MEL-2 > 100 µM | SK-OV-3 > 100 µM | SNB-78 > 100 µM | TK-10 > 100 µM | U-251 > 100 µM | UO-31 > 100 µM

CCc1cc(C)cc2[n+]1CC=C2.[O-][Cl+3]([O-])([O-])[O-]
inactive: A549 24.6 µM | CAKI-1 28.2 µM | HCC 2998 43.6 µM | KM-20L2 21.5 µM | LXFL 529 4.17 µM | NCI-H460 27.3 µM | OVCAR-4 34.1 µM | SF-268 32.5 µM | SK-MEL-2 15.6 µM | SNB-78 33.9 µM | TK-10 44.1 µM | U-251 39.5 µM | UO-31 16.9 µM

CC(=O)OCCc1cccnc1/C=N/O
inactive: A549 > 100 µM | CAKI-1 > 100 µM | DLD-1 > 100 µM | HCC 2998 > 100 µM | KM-20L2 > 100 µM | LXFL 529 > 100 µM | MOLT-4 > 100 µM | NCI-H460 > 100 µM | OVCAR-4 > 100 µM | SF-268 > 100 µM | SK-MEL-2 > 100 µM | SK-OV-3 > 100 µM | SNB-78 > 100 µM | TK-10 > 100 µM | U-251 > 100 µM | UO-31 > 100 µM

O=C(O)CC1CC=C[C@H]2c3cc4c(cc3C(=O)NC12)OCO4 (stereo partly specified)
inactive: A549 > 75 µM | DLD-1 > 75 µM | HCC 2998 > 75 µM | KM-20L2 > 75 µM | LXFL 529 > 75 µM | MOLT-4 > 75 µM | NCI-H460 > 75 µM | RPMI-8226 > 75 µM | SF-268 > 75 µM | SK-OV-3 > 75 µM | SNB-78 > 75 µM | TK-10 > 75 µM | U-251 > 75 µM | UO-31 > 75 µM

O=C1/C(=N\O)C2CCC1C2 (stereo unspecified)
inactive: A498 > 100 µM | A549 > 100 µM | CAKI-1 > 100 µM | HCC 2998 > 100 µM | KM-20L2 > 100 µM | LXFL 529 > 100 µM | MOLT-4 > 100 µM | NCI-H460 > 100 µM | OVCAR-4 > 100 µM | RPMI-8226 > 100 µM | SF-268 > 100 µM | SK-MEL-2 > 100 µM | SK-OV-3 > 100 µM | SNB-78 > 100 µM | TK-10 > 100 µM | U-251 > 100 µM | UO-31 > 100 µM

COc1cc(C2S/C(=C/c3ccccc3)C(=O)N2c2cc(Cl)c(Cl)cc2Cl)cc(OC)c1OC (stereo unspecified)
inactive: A498 44.8 µM | A549 35.6 µM | CAKI-1 > 40.8 µM | HCC 2998 39.1 µM | MCF7 30.4 µM | MDA-N 50.5 µM | MOLT-4 25.2 µM | NCI-H460 31.5 µM | OVCAR-4 52.6 µM | RPMI-8226 24.6 µM | SF-268 29.6 µM | SK-MEL-2 41.3 µM | SK-OV-3 > 70.5 µM | TK-10 > 69.3 µM | U-251 44.4 µM | UO-31 26.7 µM

N=C(N)NCCNC(=N)N
inactive: A498 > 100 µM | A549 > 100 µM | CAKI-1 > 100 µM | HCC 2998 > 100 µM | MCF7 > 100 µM | MDA-N > 100 µM | MOLT-4 > 100 µM | NCI-H460 > 100 µM | OVCAR-4 > 100 µM | RPMI-8226 > 100 µM | SF-268 > 100 µM | SK-MEL-2 > 100 µM | SK-OV-3 > 100 µM | TK-10 > 100 µM | U-251 > 100 µM | UO-31 > 100 µM

O=C(CSc1nc2ccccc2c(=O)n1-c1ccccc1)N/N=C1\C(=O)Nc2ccc(Br)cc21
inactive: A498 6.21 µM | A549 2.3 µM | CAKI-1 2.48 µM | HCC 2998 8.17 µM | MCF7 3.49 µM | MDA-N 3.01 µM | MOLT-4 3.33 µM | NCI-H460 4.92 µM | OVCAR-4 2.58 µM | RPMI-8226 2.72 µM | SF-268 5.48 µM | SK-MEL-2 9.53 µM | SK-OV-3 3.41 µM | TK-10 2.39 µM | U-251 1.82 µM | UO-31 2.28 µM

O=c1cc(-c2ccc(O)cc2)oc2cc(O)cc(O)c12 [APIGENIN]
inactive: A549 42.9 µM | HCC 2998 23.9 µM | KM-20L2 28.8 µM | LXFL 529 18.2 µM | MOLT-4 23 µM | NCI-H460 31.4 µM | OVCAR-4 32.2 µM | RPMI-8226 37.7 µM | SF-268 27.5 µM | SK-MEL-2 29.9 µM | SK-OV-3 34.9 µM | SNB-78 17.5 µM | TK-10 41.2 µM | U-251 22.6 µM | UO-31 23.9 µM

CCOC(=O)c1sc2c(C(=O)OCC)n3ccccc3c2c1N
inactive: A498 71.9 µM | A549 > 100 µM | CAKI-1 > 100 µM | DLD-1 82.2 µM | HCC 2998 > 100 µM | KM-20L2 > 100 µM | MOLT-4 > 100 µM | NCI-H460 > 100 µM | OVCAR-4 > 100 µM | RPMI-8226 > 100 µM | SF-268 21.7 µM | SK-MEL-2 > 100 µM | SK-OV-3 38 µM | SNB-78 50.9 µM | TK-10 52.7 µM | U-251 31.8 µM | UO-31 26.1 µM

CC(=O)Nc1ccc(S(=O)(=O)N/N=C/c2cc(I)cc([N+](=O)[O-])c2O)cc1
inactive: A498 > 100 µM | A549 > 100 µM | CAKI-1 81.5 µM | DLD-1 > 100 µM | HCC 2998 > 100 µM | KM-20L2 > 100 µM | MOLT-4 32.7 µM | NCI-H460 > 100 µM | OVCAR-4 30.3 µM | RPMI-8226 36.6 µM | SF-268 32.9 µM | SK-MEL-2 41.9 µM | SK-OV-3 85.3 µM | SNB-78 37 µM | TK-10 > 100 µM | U-251 49.4 µM | UO-31 33.3 µM

Cc1ccc(NC(=O)c2cccc(OP(=O)(O)Nc3ccc(C)cc3)c2)cc1
inactive: A498 > 100 µM | A549 71.8 µM | CAKI-1 > 100 µM | HCC 2998 > 100 µM | MCF7 > 100 µM | MDA-N 63.5 µM | MOLT-4 64.6 µM | NCI-H460 > 100 µM | OVCAR-4 72.8 µM | RPMI-8226 > 100 µM | SF-268 > 100 µM | SK-MEL-2 > 100 µM | SK-OV-3 > 100 µM | TK-10 > 100 µM | U-251 > 100 µM | UO-31 88.1 µM
